“Also recorded” adds a separate entry of the source.
How the values were obtained:
aged mice [1] = assay: Electrophysiology: hippocampal CA1 long-term potentiation (LTP); format: in vivo, mouse; details: aged (20-22 mo) mice, 2.5 mg/kg/d, 6 weeks; 2.5 mg/kg/day
Description: To measure the cellular mechanism of learning and memory, a modified protocol previously described (Latif-Hernandez et al., Frontiers in cellular neuroscience 10, 252, (2016), incorporated herein by reference) was used. Mice were euthanized by cervical dislocation, and hippocampus (HC) was rapidly dissected out into ice-cold (4° C.) artificial cerebrospinal fluid (ACSF), saturated with carbogen (95% O2/5% CO2). ACSF consisted of (in mM): 124 NaCl, 4.9 KCl, 24.6 NaHCO3, 1.20 KH2PO4, 2.0 CaCl2, 2.0 MgSO4, 10.0 glucose, pH 7.4. […] Slices were carefully positioned on a R6501A multi-electrode array (Alpha MED Scientific Inc., Osaka, Japan) with electrodes arrayed in an 8×2 matrix with interpolar distance of 150 μm; each matrix measured 50 μm×50 μm. After 30 min incubation, the field excitatory postsynaptic potentials (fEPSPs) in CA1 were recorded by stimulating downstream electrodes in the CA1 and CA3 regions along the Schaffer collateral pathway. […] The time course of the fEPSP was calculated as the descending slope function for all experiments. […] The mean baseline fEPSP value was calculated and percentage change from baseline after the TBS was analyzed for LTP.

aged mice [2] = assay: Spatial memory: Novel Object Location and Barnes Maze tasks; format: in vivo, mouse; details: aged (20-22 mo) mice, 2.5 mg/kg/d, 6 weeks
Description: The Novel Object Location protocol was adopted from Wimmer et al. with minor modifications. Mice interacted with the chamber (a 16 in×16 in×15 in white box made from PVC) over the course of 2 days involving 1 habituation period, 3 training sessions, and 1 testing session. On the day of training (day 1) mice were placed in the middle of an empty chamber and given 5 minutes to explore the chamber. Mice were then placed in an independent holding cage for an inter-training interval (ITI) of 3 minutes. The objects used were a plastic bottle and seasoning shaker of similar size (3 in H×1 in W×1 in L). After the habituation session, the mice then underwent three 10-minute training sessions each with a 3 min ITI in between sessions. […] Animals were recorded a JVC Everio HD camcorder GZE200 and analyzed with Kinovea video tracking software. Exploration of the objects was defined as the amount of time mice were oriented toward an object with its nose within 1 cm of it, and was scored by an experimenter blind to experimental group. […]
After testing each mouse, the maze was cleaned with 70% ethanol and rotated clockwise after every mouse to avoid intra-maze odor or visual cues. All sessions were recorded using a JVC Everio HD camcorder GZ-E200 and analyzed with Kinovea video tracking software. […]

## COc1ccc2cc(OCC3(C(=O)O)CN(C(=O)c4ccc(F)cc4)C3)ccc2c1 [PF-04418948]
Aged mice [1]
  LTP in CA1 hippocampal region of aged mice: restored hippocampal memory function as well as LTP to youthful levels; also recorded: rescued
Aged mice [2]
  hippocampal memory function: restored hippocampal memory function as well as LTP to youthful levels
